This is an account of results in patent US7074761B1, “Peptides and production and use thereof” (Takeda Chemical Ind., Ltd., priority 1996, dated 2006).

The structures appear in SMILES notation. Where a SMILES comes first, the peptide text is derived from it. Bridges are numbered along the chain shown (N, C = ends).

The IC50 is the concentration at which inhibition is half-maximal.

In one assay the target is T1, human SSTR1 (Homo sapiens, UniProt P30872).
T1 construct: expressed in transfected cells; host or cells: CHO(dhfr-) cells, clone SSTR1-8-3, plasmid pA-1-11-SSTR1 (vector pAKKO-111)
T1 sequence (P30872 whole entry): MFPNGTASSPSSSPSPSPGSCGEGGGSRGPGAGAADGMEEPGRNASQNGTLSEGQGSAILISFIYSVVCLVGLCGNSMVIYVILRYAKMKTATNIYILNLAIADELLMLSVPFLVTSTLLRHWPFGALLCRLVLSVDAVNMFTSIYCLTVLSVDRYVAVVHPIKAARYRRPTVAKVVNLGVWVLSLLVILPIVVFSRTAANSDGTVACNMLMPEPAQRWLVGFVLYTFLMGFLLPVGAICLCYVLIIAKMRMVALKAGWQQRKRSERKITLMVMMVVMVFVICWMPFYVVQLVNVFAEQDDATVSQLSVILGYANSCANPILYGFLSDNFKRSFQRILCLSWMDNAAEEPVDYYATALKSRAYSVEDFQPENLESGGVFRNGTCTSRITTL
Description: [125I]-somatostatin binding inhibition, SSTR1 CHO cell membrane fraction. Particulars: 25° C., 60 minutes. The protocol:
CHO(dhfr^−) cells (1×10^6 cells) were cultured on HAM F12 medium containing 10% fetal bovine serum in a dish with a diameter of 8 cm for 24 hours. Into these cells was introduced 10 μg of the human SSTR1 cDNA expression plasmid pA-1-11-SSTR1 obtained as described above in (2) by the calcium phosphate method (Cell Phect Transfection Kit; Pharmacia). At 24 hours after transfection, the medium was exchanged for Dulbecco's modified Eagle's medium (DMEM) containing 10% dialyzed fetal bovine serum, and cells forming a colony on this medium (namely DHFR^+ cells) were selected. Further, the cells selected were treated by the limiting dilution method for cloning from a single cell, and the somatostatin receptor protein activity was measured in the following manner. […] The [^125I] on the filter paper was measured with a γ counter. […]
(§1) The membrane fractions prepared in Reference Example 6 were each diluted to 3 μg/ml with assay buffer. […] After filtration, the radioactivity of [^125I]-somatostatin remaining on the filter paper was measured. For each test substance, the binding inhibition percentage (%) was calculated according to the formula: PBM=(B−NSB)/(B0−NSB)×100 (where PBM: percent maximum binding; B: radioactivity when the test sample is added; B0: maximum bound radioactivity; NSB: non-specifically bound radioactivity). […]

The next assay has as its target T2, human SSTR4 (Homo sapiens, UniProt P31391).
T2 construct: expressed in transfected cells; host or cells: CHO(dhfr-) cells, clone SSTR4-1-2, plasmid pA-1-11-SSTR4 (vector pAKKO-111)
Description: [125I]-somatostatin binding inhibition, SSTR4 CHO cell membrane fraction. Particulars: 25° C., 60 minutes. Here is the method: CHO(dhfr^−) cells (1×10^6 cells) were cultured on HAM F12 medium containing 10% fetal bovine serum in a dish with a diameter of 8 cm for 24 hours. Into these cells was introduced 10 μg of the human SSTR4 DNA expression plasmid pA-1-11-SSTR4 obtained as described above in (2) by the calcium phosphate method (Cell Phect Transfection Kit; Pharmacia). At 24 hours after transfection, the medium was exchanged for DMEM containing 10% dialyzed fetal bovine serum, and cells forming a colony on this medium (namely DHFR^+ cells) were selected. Further, the cells selected were treated by the limiting dilution method for cloning from a single cell, and the cells thus cloned were measured for their somatostatin receptor protein expression ability by the binding assay described in Reference Example 1 (3). In this manner, a cell line with high somatostatin-binding activity, SSTR4-1-2, was selected.
The human somatostatin receptor expressing CHO cell lines SSTR1-8-3, SSTR2-HS5-9, SSTR3-15-19, SSTR4-1-2 and SSTR5-32-4 (10^9 cells each) were respectively suspended in phosphate buffered physiological saline supplemented with 5 mM EDTA (PBS-EDTA) and centrifuged. To each cell pellet was added 10 ml of cell homogenation buffer (10 mM NaHCO3, 5 mM EDTA, pH=7.5), followed by homogenation with a Polytron homogenizer. The homogenate was centrifuged at 400×g for 15 minutes, and the supernatant obtained was further centrifuged at 100,000×g for 1 hour to give a membrane fraction as a precipitate. […]
as §1

T2 sequence (P31391 whole entry): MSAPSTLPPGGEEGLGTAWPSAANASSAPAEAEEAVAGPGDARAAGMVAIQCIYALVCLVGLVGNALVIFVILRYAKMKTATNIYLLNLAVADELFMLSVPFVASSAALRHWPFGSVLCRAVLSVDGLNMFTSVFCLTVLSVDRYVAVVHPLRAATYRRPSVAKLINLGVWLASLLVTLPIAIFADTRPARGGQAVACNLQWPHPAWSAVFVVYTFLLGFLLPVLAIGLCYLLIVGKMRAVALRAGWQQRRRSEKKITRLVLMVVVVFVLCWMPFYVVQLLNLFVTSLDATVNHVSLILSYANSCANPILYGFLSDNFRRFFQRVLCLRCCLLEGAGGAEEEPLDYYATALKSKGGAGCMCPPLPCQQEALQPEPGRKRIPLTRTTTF

As to `CSCC[C@H](N)C(=O)N1CCC[C@H]1C(=O)N[C@H]1CSSC[C@@H](C(=O)N[C@@H](CCCCN)C(=O)O)NC(=O)[C@H](CO)NC(=O)[C@H](CO)NC(=O)[C@H](Cc2ccccc2)NC(=O)[C@H]([C@@H](C)O)NC(=O)[C@H](CCCCN)NC(=O)[C@H](Cc2c[nH]c3ccccc23)NC(=O)[C@H](Cc2ccccc2)NC(=O)[C@H](Cc2ccccc2)NC(=O)[C@H](CC(N)=O)NC(=O)[C@H](CCCNC(=N)N)NC1=O` [hCS-15] (H-MPCRNFFWKTFSSCK-OH; disulfide 3-14; N-terminus and C-terminus assumed), the concentration for half-maximal inhibition (IC50) at human SSTR1 came to 7 nM; on human SSTR4, 0.6 nM.
As to `CSCC[C@H](NC(=O)[C@H](CCCNC(=N)N)NC(=O)[C@@H](N)CC(=O)O)C(=O)N1CCC[C@H]1C(=O)N[C@H]1CSSC[C@@H](C(=O)N[C@@H](CCCCN)C(=O)O)NC(=O)[C@H](CO)NC(=O)[C@H](CO)NC(=O)[C@H](Cc2ccccc2)NC(=O)[C@H]([C@@H](C)O)NC(=O)[C@H](CCCCN)NC(=O)[C@H](Cc2c[nH]c3ccccc23)NC(=O)[C@H](Cc2ccccc2)NC(=O)[C@H](Cc2ccccc2)NC(=O)[C@H](CC(N)=O)NC(=O)[C@H](CCCNC(=N)N)NC1=O` [hCS-17], the IC50 on human SSTR1 worked out at 7 nM; on human SSTR4, 0.5 nM.
